Laboratory results reported in ChEMBL document CHEMBL4229332, “Novel multi-target azinesulfonamides of cyclic amine derivatives as potential antipsychotics with pro-social and pro-cognitive effects” (Eur J Med Chem, 2018).

Key:
[1] = biological target: T1, 5-hydroxytryptamine receptor 1A (Homo sapiens) (UniProt P08908); assay: Partial agonist activity at human 5-HT1AR expressed in CHO-K1 cells assessed as increase in cAMP accumulation at 10^-6 M by chemiluminescence-based assay relative to serotonin; assay type: functional, cell-based
T1 sequence (whole entry): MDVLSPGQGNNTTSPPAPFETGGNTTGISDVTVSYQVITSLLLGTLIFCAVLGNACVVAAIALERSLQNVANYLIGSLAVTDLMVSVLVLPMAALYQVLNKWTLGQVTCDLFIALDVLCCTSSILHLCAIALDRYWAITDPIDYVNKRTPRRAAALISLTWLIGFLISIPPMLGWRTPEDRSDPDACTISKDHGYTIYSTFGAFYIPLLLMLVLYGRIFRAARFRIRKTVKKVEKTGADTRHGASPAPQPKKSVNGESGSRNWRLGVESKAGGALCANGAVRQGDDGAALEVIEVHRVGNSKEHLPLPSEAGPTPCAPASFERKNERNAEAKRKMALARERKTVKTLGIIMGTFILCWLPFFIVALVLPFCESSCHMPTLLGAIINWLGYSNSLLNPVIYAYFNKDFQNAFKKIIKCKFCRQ

[2] = Drug level in Wistar rat plasma at 3 mg/kg, ip measured after 30 mins by LC-MS/MS analysis; assay type: ADME, organism-based
[3] = Drug level in Wistar rat brain at 3 mg/kg, ip measured after 15 mins by LC-MS/MS analysis; assay type: ADME, organism-based; conditions: read-out: Drug uptake
[4] = Drug level in Wistar rat brain at 3 mg/kg, ip measured after 30 mins by LC-MS/MS analysis; assay type: ADME, organism-based; conditions: read-out: Drug uptake
[5] = Ratio of drug level in brain to plasma in Wistar rat at 3 mg/kg, ip measured after 15 mins by LC-MS/MS analysis; assay type: ADME, organism-based; conditions: read-out: BPR
[6] = Ratio of drug level in brain to plasma in Wistar rat at 3 mg/kg, ip measured after 30 mins by LC-MS/MS analysis; assay type: ADME, organism-based; conditions: read-out: BPR
Cavia porcellus [7] = assay: Cardiotoxicity in guinea pig assessed as effect on QT interval time at 5 mg/kg, ip measured after 20 mins by ECG analysis (reference value: 127.6 to 131.2 milliseconds); assay type: toxicity, organism-based; conditions: in vivo
Cavia porcellus [8] = assay: Cardiotoxicity in guinea pig assessed as effect on QT interval time at 5 mg/kg, ip measured after 30 mins by ECG analysis (reference value: 127.6 to 131.2 milliseconds); assay type: toxicity, organism-based; conditions: in vivo, 0.5 h
Cavia porcellus [9] = assay: Cardiotoxicity in guinea pig assessed as effect on QT interval time at 5 mg/kg, ip measured after 70 mins by ECG analysis (reference value: 127.6 to 131.2 milliseconds); assay type: toxicity, organism-based; conditions: in vivo
Cavia porcellus [10] = assay: Cardiotoxicity in guinea pig assessed as effect on QT interval time at 5 mg/kg, ip measured after 80 mins by ECG analysis (reference value: 127.6 to 131.2 milliseconds); assay type: toxicity, organism-based; conditions: in vivo
Cavia porcellus [11] = assay: Cardiotoxicity in guinea pig assessed as effect on PR interval time at 5 mg/kg, ip measured after 40 mins by ECG analysis (reference value: 58.8 to 63.8 milliseconds); assay type: toxicity, organism-based; conditions: in vivo
Cavia porcellus [12] = assay: Cardiotoxicity in guinea pig assessed as effect on PR interval time at 5 mg/kg, ip measured after 50 mins by ECG analysis (reference value: 58.8 to 63.8 milliseconds); assay type: toxicity, organism-based; conditions: in vivo
Cavia porcellus [13] = assay: Cardiotoxicity in guinea pig assessed as effect on PR interval time at 5 mg/kg, ip measured after 80 mins by ECG analysis (reference value: 58.8 to 63.8 milliseconds); assay type: toxicity, organism-based; conditions: in vivo
Cavia porcellus [14] = assay: Cardiotoxicity in guinea pig assessed as effect on QRS interval time at 5 mg/kg, ip measured after 30 mins by ECG analysis (reference value: 26.2 to 31.6 milliseconds); assay type: toxicity, organism-based; conditions: in vivo, 0.5 h
Cavia porcellus [15] = assay: Cardiotoxicity in guinea pig assessed as effect on QRS interval time at 5 mg/kg, ip measured after 40 mins by ECG analysis (reference value: 26.2 to 31.6 milliseconds); assay type: toxicity, organism-based; conditions: in vivo
Cavia porcellus [16] = assay: Cardiotoxicity in guinea pig assessed as effect on RR interval time at 5 mg/kg, ip measured after 10 mins by ECG analysis (reference value: 208.4 to 238.4 milliseconds); assay type: toxicity, organism-based; conditions: in vivo
Cavia porcellus [17] = assay: Cardiotoxicity in guinea pig assessed as effect on RR interval time at 5 mg/kg, ip measured after 30 mins by ECG analysis (reference value: 208.4 to 238.4 milliseconds); assay type: toxicity, organism-based; conditions: in vivo, 0.5 h
Cavia porcellus [18] = assay: Cardiotoxicity in guinea pig assessed as effect on RR interval time at 5 mg/kg, ip measured after 40 mins by ECG analysis (reference value: 208.4 to 238.4 milliseconds); assay type: toxicity, organism-based; conditions: in vivo
Cavia porcellus [19] = assay: Cardiotoxicity in guinea pig assessed as effect on RR interval time at 5 mg/kg, ip measured after 80 mins by ECG analysis (reference value: 208.4 to 238.4 milliseconds); assay type: toxicity, organism-based; conditions: in vivo
Cavia porcellus [20] = assay: Cardiotoxicity in guinea pig assessed as effect on QTc interval time at 5 mg/kg, ip measured after 40 mins by ECG analysis (reference value: […] to […] milliseconds); assay type: toxicity, organism-based; conditions: in vivo
Cavia porcellus [21] = assay: Cardiotoxicity in guinea pig assessed as effect on QTc interval time at 5 mg/kg, ip measured after 50 mins by ECG analysis (reference value: […] to […] milliseconds); assay type: toxicity, organism-based; conditions: in vivo
Cavia porcellus [22] = assay: Cardiotoxicity in guinea pig assessed as effect on frequence of heart rate at 5 mg/kg, ip measured after 30 mins by ECG analysis (reference value: 262 to 296 /min); assay type: toxicity, organism-based; conditions: in vivo, 0.5 h
Cavia porcellus [23] = assay: Cardiotoxicity in guinea pig assessed as effect on frequence of heart rate at 5 mg/kg, ip measured after 70 mins by ECG analysis (reference value: 262 to 296 /min); assay type: toxicity, organism-based; conditions: in vivo
[24] = Intrinsic clearance in rat liver microsomes at 20 uM at 37 degC measured after 120 mins in presence of NADPH-regenerating system by UPLC-MS analysis; assay type: ADME, microsome; conditions: read-out: CLH
Cytochrome P450 2C9 = Cytochrome P450 2C9 (Homo sapiens, UniProt P11712); assay: Inhibition of human supersome CYP2C9 using diclofenac as substrate assessed as diclofenac 4'-hydroxylation after 30 mins by HPLC-UV detection; assay type: ADME
Cytochrome P450 2C9, sequence (P11712 whole entry): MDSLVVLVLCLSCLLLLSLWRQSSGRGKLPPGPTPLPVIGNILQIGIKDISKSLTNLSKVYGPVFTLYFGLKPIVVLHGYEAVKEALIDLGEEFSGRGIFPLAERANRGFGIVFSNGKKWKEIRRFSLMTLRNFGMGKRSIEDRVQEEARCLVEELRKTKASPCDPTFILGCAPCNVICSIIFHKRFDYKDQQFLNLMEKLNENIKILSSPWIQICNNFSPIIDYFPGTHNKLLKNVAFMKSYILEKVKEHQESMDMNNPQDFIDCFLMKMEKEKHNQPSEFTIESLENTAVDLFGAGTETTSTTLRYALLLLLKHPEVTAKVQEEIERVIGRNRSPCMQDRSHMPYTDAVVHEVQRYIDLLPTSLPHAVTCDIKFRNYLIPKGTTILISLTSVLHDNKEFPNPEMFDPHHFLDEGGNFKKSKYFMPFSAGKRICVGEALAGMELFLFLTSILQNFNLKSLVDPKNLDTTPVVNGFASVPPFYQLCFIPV

Cytochrome P450 2C19 = Cytochrome P450 2C19 (Homo sapiens, UniProt P33261); assay: Inhibition of human supersome CYP2C19 using perazine as substrate assessed as perazine N-demethylation after 30 mins by HPLC-UV detection; assay type: ADME
Cytochrome P450 2C19, sequence (P33261 whole entry): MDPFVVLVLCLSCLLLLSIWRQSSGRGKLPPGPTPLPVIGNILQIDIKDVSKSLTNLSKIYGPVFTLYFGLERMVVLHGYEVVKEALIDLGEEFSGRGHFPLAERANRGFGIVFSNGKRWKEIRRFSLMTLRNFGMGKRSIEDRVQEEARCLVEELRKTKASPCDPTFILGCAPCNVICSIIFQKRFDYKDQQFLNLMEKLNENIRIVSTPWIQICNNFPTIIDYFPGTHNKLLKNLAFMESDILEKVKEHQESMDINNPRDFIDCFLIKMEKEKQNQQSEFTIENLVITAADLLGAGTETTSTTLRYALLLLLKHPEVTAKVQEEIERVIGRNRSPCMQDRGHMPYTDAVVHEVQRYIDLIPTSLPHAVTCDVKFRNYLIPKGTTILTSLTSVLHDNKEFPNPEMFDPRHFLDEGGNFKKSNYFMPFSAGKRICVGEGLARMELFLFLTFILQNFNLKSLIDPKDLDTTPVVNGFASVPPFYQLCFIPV

Cytochrome P450 3A4 = Cytochrome P450 3A4 (Homo sapiens, UniProt P08684); assay: Inhibition of human supersome CYP3A4 using testosterone as substrate assessed as testosterone 6beta-hydroxylation after 30 mins by HPLC-UV detection; assay type: ADME
Cytochrome P450 3A4, sequence (P08684 whole entry): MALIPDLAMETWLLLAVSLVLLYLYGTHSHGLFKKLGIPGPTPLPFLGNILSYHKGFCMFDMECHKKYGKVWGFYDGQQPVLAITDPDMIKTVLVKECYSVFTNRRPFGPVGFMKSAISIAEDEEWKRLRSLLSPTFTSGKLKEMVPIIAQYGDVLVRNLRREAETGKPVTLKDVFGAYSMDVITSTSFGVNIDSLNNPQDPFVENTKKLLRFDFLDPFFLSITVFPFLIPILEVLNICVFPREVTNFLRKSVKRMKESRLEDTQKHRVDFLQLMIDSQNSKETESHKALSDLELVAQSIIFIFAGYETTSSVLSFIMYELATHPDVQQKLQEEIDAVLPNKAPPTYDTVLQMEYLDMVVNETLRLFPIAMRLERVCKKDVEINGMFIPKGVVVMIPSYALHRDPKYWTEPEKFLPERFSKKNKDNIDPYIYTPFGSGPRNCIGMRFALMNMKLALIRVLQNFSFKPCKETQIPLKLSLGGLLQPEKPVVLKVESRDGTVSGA

[25] = biological target: 5-hydroxytryptamine receptor 7 (Homo sapiens, UniProt P34969); assay: biochemical
5-hydroxytryptamine receptor 7, sequence (P34969 whole entry): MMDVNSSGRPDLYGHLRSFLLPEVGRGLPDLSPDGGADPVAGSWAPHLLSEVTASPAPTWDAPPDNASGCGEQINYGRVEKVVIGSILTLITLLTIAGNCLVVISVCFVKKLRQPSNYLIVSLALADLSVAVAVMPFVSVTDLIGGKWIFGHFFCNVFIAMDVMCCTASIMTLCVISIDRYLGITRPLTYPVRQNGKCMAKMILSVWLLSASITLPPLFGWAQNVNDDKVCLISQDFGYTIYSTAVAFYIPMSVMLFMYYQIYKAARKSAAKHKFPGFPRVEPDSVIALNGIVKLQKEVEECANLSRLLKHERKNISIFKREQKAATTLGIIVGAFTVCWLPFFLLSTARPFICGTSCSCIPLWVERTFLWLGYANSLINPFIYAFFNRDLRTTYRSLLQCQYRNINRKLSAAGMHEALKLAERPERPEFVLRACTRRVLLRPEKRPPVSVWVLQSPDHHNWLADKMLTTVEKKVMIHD
Description: Displacement of [3H]-5-CT from human 5-HT7R expressed in HEK293 cell membranes after 1 hr at 37 degC by microbeta counting method

Rattus norvegicus [26] = species on record: Rattus norvegicus; assay: animal or person; conditions: Sprague-Dawley, ip, read-out: MED
Description: Antipsychotic activity in ip dosed Sprague-Dawley rat assessed as reduction in PCP-induced hyper-locomotion pretreated for 60 mins followed by PCP addition measured for 30 mins starting 15 min after rat reintroduction to auto-tracks

Rattus norvegicus [27] = species on record: Rattus norvegicus; assay: animal or person; conditions: Sprague-Dawley, ip, read-out: MED; remark: listed apart in the source
Description: Reversal of PCP-induced cognitive impairment in ip dosed Sprague-Dawley rat assessed as reduction in time spent exploring novel object over familiar object pretreated for 60 mins followed by PCP addition by novel object recognition assay

Rattus norvegicus [28] = species on record: Rattus norvegicus; assay: animal or person; conditions: Sprague-Dawley, ip, read-out: MED; remark: listed apart in the source
Description: Antipsychotic activity in ip dosed Sprague-Dawley rat assessed as suppression of avoidance behavior by avoiding foot shock administered 60 mins prior to test by conditioned avoidance response test

Rattus norvegicus [29] = species on record: Rattus norvegicus; assay: animal or person; conditions: Sprague-Dawley, ip, read-out: MED; remark: listed apart in the source
Description: Reversal of ketamine-induced working social withdrawal in ip dosed Sprague-Dawley rat pretreated for 60 mins followed by ketamine administration

| SMILES | Activity [1] [%] | concentration at 0.5 h [2] [nM] | concentration at 0.25 h [3] [nM] | concentration at 0.5 h [4] [nM] | Kp at 0.25 h [5] | Kp at 0.5 h [6] | Time (Cavia porcellus [7]) [ms] | Time (Cavia porcellus [8]) [ms] | Time (Cavia porcellus [9]) [ms] | Time (Cavia porcellus [10]) [ms] | Time (Cavia porcellus [11]) [ms] | Time (Cavia porcellus [12]) [ms] | Time (Cavia porcellus [13]) [ms] | Time (Cavia porcellus [14]) [ms] | Time (Cavia porcellus [15]) [ms] | Time (Cavia porcellus [16]) [ms] | Time (Cavia porcellus [17]) [ms] | Time (Cavia porcellus [18]) [ms] | Time (Cavia porcellus [19]) [ms] | Time (Cavia porcellus [20]) [ms] | further results |
| --- | --- | --- | --- | --- | --- | --- | --- | --- | --- | --- | --- | --- | --- | --- | --- | --- | --- | --- | --- | --- | --- |
| O=S(=O)(c1cncc2ccccc12)N1CCC[C@H]1CCN1CCN(c2cccc3sccc23)CC1 | 40.6 | 105 | 317 | 245 | 1.69 | 2.44 | 129 | 126.8 | 124 | 123.6 | 63.4 | 64.2 | 63.8 | 32.4 | 31.2 | 236.6 | 235.2 | 227.2 | 214 | 263.4 | Time (Cavia porcellus [21]): 265 ms; Activity (Cavia porcellus [22]): 264 min⁻¹; Activity (Cavia porcellus [23]): 271 min⁻¹; microsomal CLint at 20 µM [24]: 2.81 µL/min/mg; IC50 (Cytochrome P450 2C9): > 100 µM; IC50 (Cytochrome P450 2C19): > 100 µM; IC50 (Cytochrome P450 3A4): 10 µM; Ki [25]: 0.019 µM; minimal effective dose (Rattus norvegicus [26]): 1 mg/kg; minimal effective dose (Rattus norvegicus [27]): 1 mg/kg; minimal effective dose (Rattus norvegicus [28]): 3 mg/kg; minimal effective dose (Rattus norvegicus [29]): 1 mg/kg |
| O=S(=O)(c1cncc2ccccc12)N1CCC[C@H]1CCN1CCN(c2nsc3ccccc23)CC1 | 5.3 | 177 | 153 | 177 | 0.59 | 1.33 | 121.6 | 128.8 | 125.4 | 125.6 | 61 | 60 | 61.8 | 26.8 | 27.6 | 202 | 212.6 | 211 | 213 | 274.2 | Time (Cavia porcellus [21]): 266 ms; Activity (Cavia porcellus [22]): 287 min⁻¹; Activity (Cavia porcellus [23]): 287 min⁻¹; microsomal CLint at 20 µM [24]: 1.73 µL/min/mg; IC50 (Cytochrome P450 2C9): 100 µM; IC50 (Cytochrome P450 2C19): 50 µM; IC50 (Cytochrome P450 3A4): 23 µM; Ki [25]: 0.009 µM; minimal effective dose (Rattus norvegicus [26]): 1 mg/kg; minimal effective dose (Rattus norvegicus [27]): 1 mg/kg; minimal effective dose (Rattus norvegicus [28]): 3 mg/kg; minimal effective dose (Rattus norvegicus [29]): 3 mg/kg |
